Experimental data as given in patent US20250282768A1 (Janssen Pharmaceutica NV, priority 2022, published 2025).

Tested on: p-IKKa levels in L363 (NIK translocated multiple myeloma) cells
Assay: Assay 2: Effect of compounds on p-IKKa levels in L363 (NIK translocated multiple myeloma) cells
Assay type: cell-based
Settings: Homo sapiens, L-363, 6 h, read-out: Assay 2 IC50 (nM), p-IKKa (Ser 176/180) in BAFF stimulated L363 cells with MG132, 6 h; average if tested more than once
Summary of the method: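 Read-out is p-IKKa Ser176/180 by AlphaLISA SureFire in lysates. Cells were BAFF-primed (250 ng/ml) overnight or left unstimulated, then exposed 6 h at 37 °C to compound with MG132 (10 μM), 0.3% DMSO. IC50 from sigmoidal curve fit, normalized between stimulated and unstimulated controls.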

## CN1CC[C@@](O)(c2cn(-c3cccc(-c4ccnc(Nc5cn(C)nc5OCC(F)F)n4)n3)nn2)C1=O [Example 205, (R)-3-(1-(6-(2-((3-(2,2-Difluoroethoxy)-1-methyl-1H-pyrazol-4-yl)amino)pyrimidin-4-yl)pyridin-2-yl)-1H-1,2,3-triazol-4-yl)-3-hydroxy-1-methylpyrrolidin-2-one]
  IC50: < 50 nM

## Cc1cc(Nc2nccc(-c3cccc(-c4cc([C@@]5(O)C(=O)N(C)CC5(F)F)on4)n3)n2)ccn1 [Example 408, (R)-4,4-Difluoro-3-hydroxy-1-methyl-3-(3-(6-(2-((2-methylpyridin-4-yl)amino)pyrimidin-4-yl)pyridin-2-yl)isoxazol-5-yl)pyrrolidin-2-one]
  IC50: < 50 nM

## CN1CC[C@](O)(c2cc(-c3cccc(-c4ccnc(Nc5cnn(C)c5Cl)n4)n3)n[nH]2)C1=O (single isomer, unassigned) [Example 105]
  IC50: 50 to 500 nM

## CN1CC[C@@](O)(c2cc(-c3cccc(-c4ccnc(N[C@@H]5CCSC5)n4)n3)no2)C1=O (single isomer, unassigned) [Example 458, (R)-3-Hydroxy-1-methyl-3-(3-(6-(2-(((*R)-tetrahydrothiophen-3-yl)amino)pyrimidin-4-yl)pyridin-2-yl)isoxazol-5-yl)pyrrolidin-2-one]
  IC50: 50 to 500 nM

## CCc1c(Nc2nccc(-c3cccc(-c4cc([C@]5(O)CCN(C)C5=O)on4)n3)n2)cnn1C [Example 226, (R)-3-(3-(6-(2-((5-Ethyl-1-methyl-1H-pyrazol-4-yl)amino)pyrimidin-4-yl)pyridin-2-yl)isoxazol-5-yl)-3-hydroxy-1-methylpyrrolidin-2-one]
  IC50: < 50 nM

## CN1CC[C@@](O)(c2cc(-c3cccc(-c4ccnc(Nc5ncn(CC(F)(F)F)n5)n4)n3)no2)C1=O [Example 305, (R)-3-Hydroxy-1-methyl-3-(3-(6-(2-((1-(2,2,2-trifluoroethyl)-1H-1,2,4-triazol-3-yl)amino)pyrimidin-4-yl)pyridin-2-yl)isoxazol-5-yl)pyrrolidin-2-one]
  IC50: 50 to 500 nM

## CN1CC[C@@](O)(c2cc(-c3cccc(-c4ccnc(N[C@@H]5CCCC[C@@H]5O)n4)n3)no2)C1=O [Example 357, (R)-3-Hydroxy-3-(3-(6-(2-(((1R,2S)-2-hydroxycyclohexyl)amino)pyrimidin-4-yl)pyridin-2-yl)isoxazol-5-yl)-1-methylpyrrolidin-2-one]
  IC50: > 500 nM

## CN1CC[C@@](O)(c2cc(-c3cccc(-c4ccnc(N[C@@H]5CCCOC5)n4)n3)no2)C1=O [Example 455, (R)-3-Hydroxy-1-methyl-3-(3-(6-(2-(((R)-tetrahydro-2H-pyran-3-yl)amino)pyrimidin-4-yl)pyridin-2-yl)isoxazol-5-yl)pyrrolidin-2-one]
  IC50: > 500 nM

## CN1CC[C@@](O)(c2cc(-c3cccc(-c4ccnc(Nc5cnc6n5CCOCC6)n4)n3)no2)C1=O [Example 314, (R)-3-Hydroxy-1-methyl-3-(3-(6-(2-((5,6,8,9-tetrahydroimidazo[1,2-d][1,4]oxazepin-3-yl)amino)pyrimidin-4-yl)pyridin-2-yl)isoxazol-5-yl)pyrrolidin-2-one]
  IC50: > 500 nM

## COc1cc(-c2cc([C@]3(O)CCN(C)C3=O)on2)nc(-c2ccnc(Nc3cnn(C)c3)n2)c1 [Example 145, (R)-3-Hydroxy-3-(3-(4-methoxy-6-(2-((1-methyl-1H-pyrazol-4-yl)amino)pyrimidin-4-yl)pyridin-2-yl)isoxazol-5-yl)-1-methylpyrrolidin-2-one]
  IC50: < 50 nM

## C[C@@H](Nc1nccc(-c2cccc(-n3cc([C@]4(O)CCN(C)C4=O)nn3)n2)n1)c1cnn(C)c1 (single isomer, unassigned) [Example 118]
  IC50: > 500 nM

## CN1CC[C@@](O)(c2cc(-c3cccc(-c4ccnc(Nc5nnnn5C)n4)n3)no2)C1=O [Example 321, (R)-3-Hydroxy-1-methyl-3-(3-(6-(2-((1-methyl-1H-tetrazol-5-yl)amino)pyrimidin-4-yl)pyridin-2-yl)isoxazol-5-yl)pyrrolidin-2-one]
  IC50: > 500 nM

## COCc1ccnc(Nc2nccc(-c3cccc(-c4cc([C@]5(O)CCN(C)C5=O)on4)n3)n2)c1 [Example 260, (R)-3-Hydroxy-3-(3-(6-(2-((4-(methoxymethyl)pyridin-2-yl)amino)pyrimidin-4-yl)pyridin-2-yl)isoxazol-5-yl)-1-methylpyrrolidin-2-one]
  IC50: < 50 nM

## CN1CC[C@@](O)(c2cc(-c3cccc(-c4ccnc(NCc5ccn(C)n5)n4)n3)no2)C1=O [Example 367, (R)-3-Hydroxy-1-methyl-3-(3-(6-(2-(((1-methyl-1H-pyrazol-3-yl)methyl)amino)pyrimidin-4-yl)pyridin-2-yl)isoxazol-5-yl)pyrrolidin-2-one]
  IC50: 50 to 500 nM

## Cc1nscc1Nc1nccc(-c2cccc(-c3cc([C@]4(O)CCN(C)C4=O)on3)n2)n1 [Example 229, (R)-3-Hydroxy-1-methyl-3-(3-(6-(2-((3-methylisothiazol-4-yl)amino)pyrimidin-4-yl)pyridin-2-yl)isoxazol-5-yl)pyrrolidin-2-one]
  IC50: < 50 nM

## Cc1nccc(Nc2nccc(-c3cccc(-n4cc([C@]5(O)CCN(C)C5=O)nn4)n3)n2)c1F [Example 326, (R)-3-(1-(6-(2-((3-Fluoro-2-methylpyridin-4-yl)amino)pyrimidin-4-yl)pyridin-2-yl)-1H-1,2,3-triazol-4-yl)-3-hydroxy-1-methylpyrrolidin-2-one]
  IC50: < 50 nM

## C[C@@H](Nc1nccc(-c2cccc(-c3cc([C@]4(O)CCN(C)C4=O)on3)n2)n1)c1cnn(C)c1 (single isomer, unassigned) [Example 69]
  IC50: < 50 nM

## CN1CC[C@@](O)(c2cc(-c3cccc(-c4ccnc(N[C@@H]5COC[C@@H]5F)n4)n3)no2)C1=O [Example 339, (R)-3-(3-(6-(2-(((cis)-4-Fluorotetrahydrofuran-3-yl)amino)pyrimidin-4-yl)pyridin-2-yl)isoxazol-5-yl)-3-hydroxy-1-methylpyrrolidin-2-one]
  IC50: 50 to 500 nM

## Cc1cc(Nc2nccc(-c3cccc(-c4cc([C@]5(O)CCN(C)C5=O)on4)n3)n2)ccn1 [Example 196, (R)-3-Hydroxy-1-methyl-3-(3-(6-(2-((2-methylpyridin-4-yl)amino)pyrimidin-4-yl)pyridin-2-yl)isoxazol-5-yl)pyrrolidin-2-one]
  IC50: < 50 nM

## CN1CC[C@@](O)(c2cc(-c3cccc(-c4ccnc(Nc5cnn([C@H]6CCN(C7COC7)C6)c5)n4)n3)no2)C1=O (single isomer, unassigned) [Example 140]
  IC50: < 50 nM

## Cc1c(Nc2nccc(-c3cccc(-c4cc([C@@]5(O)C(=O)N(C)[C@@H]6C[C@@H]65)on4)n3)n2)cnn1C [Example 241, (1R,4R,5S)-4-(3-(6-(2-((1,5-Dimethyl-1H-pyrazol-4-yl)amino)pyrimidin-4-yl)pyridin-2-yl)isoxazol-5-yl)-4-hydroxy-2-methyl-2-azabicyclo[3.1.0]hexan-3-one]
  IC50: 50 to 500 nM

## CN1CC[C@@](O)(c2cn(-c3cccc(-c4ccnc(Nc5cnn(C)c5)n4)n3)nn2)C1=O [Example 206, (R)-3-Hydroxy-1-methyl-3-(1-(6-(2-((1-methyl-1H-pyrazol-4-yl)amino)pyrimidin-4-yl)pyridin-2-yl)-1H-1,2,3-triazol-4-yl)pyrrolidin-2-one]
  IC50: < 50 nM

## Cc1c(Nc2nccc(-c3cccc(-c4cc([C@]5(O)CCN(C)C5=O)no4)n3)n2)cnn1C [Example 238, (R)-3-(5-(6-(2-((1,5-Dimethyl-1H-pyrazol-4-yl)amino)pyrimidin-4-yl)pyridin-2-yl)isoxazol-3-yl)-3-hydroxy-1-methylpyrrolidin-2-one]
  IC50: < 50 nM

## Cc1cc(-c2cc([C@]3(O)CCN(C)C3=O)on2)nc(-c2ccnc(Nc3cnn(C)c3)n2)c1 [Example 99, (R)-3-Hydroxy-1-methyl-3-(3-(4-methyl-6-(2-((1-methyl-1H-pyrazol-4-yl)amino)pyrimidin-4-yl)pyridin-2-yl)isoxazol-5-yl)pyrrolidin-2-one]
  IC50: < 50 nM

## CO[C@@H]1CCC[C@H](Nc2nccc(-c3cccc(-c4cc([C@]5(O)CCN(C)C5=O)on4)n3)n2)C1 [Example 449, (R)-3-Hydroxy-3-(3-(6-(2-(((1S,3R)-3-methoxycyclohexyl)amino)pyrimidin-4-yl)pyridin-2-yl)isoxazol-5-yl)-1-methylpyrrolidin-2-one]
  IC50: 50 to 500 nM

## COc1nn(CC(C)(C)O)cc1Nc1nccc(-c2cccc(-c3cc([C@]4(O)CCN(C)C4=O)on3)n2)n1 [Example 49, (R)-3-Hydroxy-3-(3-(6-(2-((1-(2-hydroxy-2-methylpropyl)-3-methoxy-1H-pyrazol-4-yl)amino)pyrimidin-4-yl)pyridin-2-yl)isoxazol-5-yl)-1-methylpyrrolidin-2-one]
  IC50: < 50 nM

## CN1CC[C@@](O)(c2cc(-c3cccc(-c4ccnc(Nc5cn(C)nc5OCC(F)F)n4)n3)no2)C1=O [Example 54, (R)-3-(3-(6-(2-((3-(2,2-Difluoroethoxy)-1-methyl-1H-pyrazol-4-yl)amino)pyrimidin-4-yl)pyridin-2-yl)isoxazol-5-yl)-3-hydroxy-1-methylpyrrolidin-2-one]
  IC50: < 50 nM

## CN1CC[C@@](O)(c2cc(-c3cccc(-c4ccnc(Nc5cnn6cccnc56)n4)c3)no2)C1=O [Example 18, (R)-3-Hydroxy-1-methyl-3-(3-(3-(2-(pyrazolo[1,5-a]pyrimidin-3-ylamino)pyrimidin-4-yl)phenyl)isoxazol-5-yl)pyrrolidin-2-one]
  IC50: > 500 nM

## CN1CC[C@@](O)(c2cc(-c3cccc(-c4ccnc(Nc5cc6n(n5)CCOC6)n4)n3)no2)C1=O [Example 432, (R)-3-(3-(6-(2-((6,7-Dihydro-4H-pyrazolo[5,1-c][1,4]oxazin-2-yl)amino)pyrimidin-4-yl)pyridin-2-yl)isoxazol-5-yl)-3-hydroxy-1-methylpyrrolidin-2-one]
  IC50: < 50 nM
